Reference: patent US7714140B2, “1,2 Benzoisothiazole derivative, and agricultural or horticultural plant disease- controlling agent” (Kumiai Chemical Industry, Co. Ltd., priority 2006, dated 2010)

Columns and labels:
[1] = system: Pyricularia oryzae; format: in vivo; settings: paddy rice (Aichi Asahi), root treatment with wettable powder, active ingredient 30 g per 10 ares; inoculated 26 days after treatment; lesions counted 8 days after inoculation
[2] = system: Colletotrichum orbiculare; experiment: Test for preventive effect for cucumber anthracnose; settings: cucumber (Sagamihanjiro), soil drench 10 ml, inoculated 7 days later, lesions counted 7 days after
Description: Four cucumber seeds (variety: Sagamihanjiro) were sowed in a plastic cup of 5.5 cm in diameter, at a depth of 2 cm, and were grown in a greenhouse for 7 days. […] 10 ml of the dilution was poured into the soil at the root of young cucumber seedlings having cotyledons. 7 days later, a conidia suspension (10^5 to 10^6/ml) of Colletotrichum orbiculare which had been cultured in a PDA plate medium, was uniformly inoculated to the cucumber plant by hand spraying. The cup was allowed to stand in a moist chamber of 25° C. for 24 hours. Then, the cup was allowed to stand on a basin in a glass greenhouse and, 7 day later, the number of lesions of all cotyledons in pot was examined. A protective value was calculated from the expression 1 and evaluated according to the standard of Table 2.
Using a comparative compound shown below, a wettable powder was prepared according to Example 5. A control number thereof was calculated in the same manner as in the above Test Example.

[3] = concentration of active ingredient 1 ppm
[4] = concentration of active ingredient 10 ppm

SMILES: O=S1(=O)N=C(OCc2ccncc2)c2ccccc21 [Comparative compound 1, reference compound]
- Evaluation (protective value) [1]: C (protective value: less than 80.0% to 50.0% or more)
- Evaluation (protective value) [2, 3]: D (protective value: less than 50.0%)
- Evaluation (protective value) [2, 4]: B (protective value: less than 90.0% to 80.0% or more)

SMILES: O=S1(=O)N=C(OCc2snc(Cl)c2Cl)c2ccccc21 [Compound No. 1, 3-(3,4-dichloroisothiazol-5-ylmethoxy)-1,2-benzoisothiazole 1,1-dioxide]
- Evaluation (protective value) [1]: B (protective value: less than 90.0% to 80.0% or more)
- Evaluation (protective value) [2, 3]: A (protective value: 100% to 90.0% or more)
- Evaluation (protective value) [2, 4]: A (protective value: 100% to 90.0% or more)

SMILES: C=CCOC1=NS(=O)(=O)c2ccccc21 [Probenazole, reference compound]
- Evaluation (protective value) [1]: C (protective value: less than 80.0% to 50.0% or more)

SMILES: Cc1cc(COC2=NS(=O)(=O)c3ccccc32)sn1 [compound 5, 3-(3-methylisothiazol-5-ylmethoxy)-1,2-benzoisothiazole 1,1-dioxide]
- Evaluation (protective value) [1]: B (protective value: less than 90.0% to 80.0% or more)
- melting point: 202 to 204 °C
- Evaluation (protective value) [2, 3]: D (protective value: less than 50.0%)
- Evaluation (protective value) [2, 4]: A (protective value: 100% to 90.0% or more)
